Literature values in patent US20110092602A1 (priority 2008, published 2011).
Like-named read-outs stand apart in the source and are kept apart here.

Tests used:
[1] = pH 7
[2] = not given; remark: listed apart in the source

SMILES	solubility (ethanol)	solubility (water)	n-octanol/water log partition coefficient (logP) [1]	affinity of binding to μ-opioid receptors (μ-opioid receptors)	potency in μ-opioid binding relative to tramadol (μ-opioid receptors; animal models)	potency in producing analgesia relative to tramadol ([2]; animal models)	antagonism of analgesia by the opiate antagonist naloxone ([2]; several animals tests)
COc1cccc([C@]2(O)CCCC[C@H]2CN(C)C)c1.Cl (racemic) [Tramadol hydrochloride, (±)cis-2-[(dimethylamino)methyl]-1-(3-methoxyphenyl)cyclohexanol hydrochloride]	readily soluble	readily soluble	1.35				
CN(C)C[C@H]1CCCC[C@]1(O)c1cccc(O)c1 [Example M1]				higher affinity	200 times	up to 6 times	
COc1cccc(C2(O)CCCCC2CN(C)C)c1 (centres unmarked) [Tramadol, 2-dimethylaminomethyl-1-(3-methoxyphenyl)cyclohexanol]				low affinity			only partially antagonized
